The nature of series [1]: Henry solubility constant Hcp at 298.15 K (mol/(m3 Pa)).
A short description of series [2]: Henry solubility constant Hcp at 296 K (mol/(m3 Pa)).
Series [3] in a line: Henry solubility constant Hcp at 310 K (mol/(m3 Pa)).
Series [4] can be described thus: Henry solubility constant Hcp at 293 K (mol/(m3 Pa)).
Where [5] appears, read: reference: Arp and Schmidt (2004).
Where [6] appears, read: reference: Miller and Stuart (2000).
Where [7] appears, read: reference: Fendinger and Glotfelty (1988).
Setting [8] is: reference: Fendinger et al. (1989).
The mark [9] stands for this setting: reference: Lerman et al. (1983).
[10] abbreviates: reference: Smith et al. (1981b).
The mark [11] stands for this setting: reference: Nielsen et al. (1994).
Where [12] appears, read: reference: Power and Stegall (1970).
Where [13] appears, read: reference: Xu and Kropscott (2014).
Where [14] appears, read: reference: Warner et al. (1980).
Setting [15] is: reference: Bissonette et al. (1990).
Where [16] appears, read: reference: Stoelting and Longshore (1972).

As to `CCC(C)(C)OC` [2-methoxy-2-methylbutane], the “Henry solubility constant Hcp” value in series [1] (setting [5]) came to 0.0086; in series [1] (reference: Haimi et al. (2006)), 0.01; in series [1] (reference: Hwang et al. (2010)), 0.053; in series [1] (reference: Park et al. (1997)) it was 0.007. The “Henry solubility constant Hcp at 296 K” value in series [2] (setting [6]) amounted to 0.0052.
With `ClC1C(Cl)C(Cl)C(Cl)C(Cl)C1Cl` (stereo unspecified) [γ-1,2,3,4,5,6-hexachlorocyclohexane], the “Henry solubility constant Hcp” value in series [1] (reference: Kucklick et al. (1991)) was 2.8; in series [1] (reference: Sahsuvar et al. (2003)) it was 4.3; in series [1] (reference: Xie et al. (2004)) it was 6. Also, the “Henry solubility constant Hcp at 296 K” value in series [2] (setting [7]) turned out to be 5; in series [2] (setting [8]), 4.9.
Turning to `CCCCOC(=O)c1ccccc1C(=O)OCCCC` [dibutyl phthalate], the “Henry solubility constant Hcp at 296 K” value in series [2] (reference: Atlas et al. (1983)) was found to be 5.5.
Consider `Cc1ccc(C)c(C)c1` [1,2,4-trimethylbenzene], for which the “Henry solubility constant Hcp at 310 K” value in series [3] (reference: Järnberg and Johanson (1995)) was 0.00062. The “Henry solubility constant Hcp” value in series [1] (reference: Li et al. (2008)) amounted to 0.0017. In series [4] (reference: Yurteri et al. (1987)), the “Henry solubility constant Hcp at 293 K” value was 0.0021.
`CCOP(=S)(OCC)Oc1cc(C)nc(C(C)C)n1` [diazinon]: the “Henry solubility constant Hcp” value in series [1] (reference: Feigenbrugel et al. (2004a)) came to 15. The figures for the “Henry solubility constant Hcp at 296 K” value in series [2] (setting [7]) and in series [2] (setting [8]) were 88 and 84, respectively.
On to `C=C(C)C1CC=C(C)CC1` (stereo unspecified) [1-methyl-4-(1-methylethenyl)-cyclohexene], for which, in series [3] (reference: Falk et al. (1990)), the “Henry solubility constant Hcp at 310 K” value turned out to be 0.0007. Further, the “Henry solubility constant Hcp” value amounted to 0.00026 in series [1] (reference: Copolovici and Niinemets (2007)); 0.0007 in series [1] (reference: Fichan et al. (1999)); 0.00048 in series [1] (reference: Leng et al. (2013)).
For `FC(F)OC(Cl)C(F)(F)F` (stereo unspecified) [1-chloro-2,2,2-trifluoroethyl difluoromethyl ether], in series [3] (setting [9]), the “Henry solubility constant Hcp at 310 K” value turned out to be 0.00024. Also, the “Henry solubility constant Hcp” value in series [1] (setting [10]) was found to be 0.00048.
With `CC(C)OC(C)C` [diisopropyl ether], the “Henry solubility constant Hcp” value in series [1] (setting [5]) worked out at 0.0039; in series [1] (reference: Hwang et al. (2010)), 0.015; in series [1] (setting [11]), 0.0048. Further, the “Henry solubility constant Hcp at 296 K” value in series [2] (setting [6]) was 0.0043.
Turning to `O=C=O` [carbon dioxide], the “Henry solubility constant Hcp at 310 K” value in series [3] (setting [12]) worked out at 0.00024. Besides, the “Henry solubility constant Hcp” value in series [1] (reference: Bohr (1899)) was 0.00034; in series [1] (reference: Bunsen (1855a)), 0.00034; in series [1] (reference: Geffcken (1904)), 0.00033; in series [1] (reference: Kunerth (1922)), 0.00033; in series [1] (reference: Morrison and Billett (1952)), 0.00033; in series [1] (reference: Murray and Riley (1971)), 0.00033. Also, the “Henry solubility constant Hcp” value was found to be 0.00033 in series [1] (reference: Orcutt and Seevers (1937a)); 0.00034 in series [1] (reference: Zheng et al. (1997)).
On to `C[Si]1(C)O[Si](C)(C)O[Si](C)(C)O[Si](C)(C)O[Si](C)(C)O1` [decamethylcyclopentasiloxane], for which the “Henry solubility constant Hcp” value in series [1] (reference: Xu and Kropscott (2012)) was 3e-07; in series [1] (setting [13]), 2.8e-07. For the same compound, the “Henry solubility constant Hcp at 296 K” value in series [2] (reference: David et al. (2000)) turned out to be 7.4e-05.
As for `ClC1=C(Cl)[C@]2(Cl)C3C(Cl)C(Cl)CC3[C@@]1(Cl)C2(Cl)Cl` (stereo partly specified) [chlordane], the figures for the “Henry solubility constant Hcp” value in series [1] (setting [8]) and in series [1] (setting [14]) were 0.12 and 0.21, respectively. Further, the “Henry solubility constant Hcp at 296 K” value in series [2] (setting [8]) was 0.18.
In the case of `Clc1ccc(C(c2ccc(Cl)cc2)C(Cl)(Cl)Cl)cc1` [1,1,1-trichloro-2,2-bis-(4-chlorophenyl)-ethane], in series [1] (setting [8]), the “Henry solubility constant Hcp” value amounted to 1.2. In series [2] (setting [8]), the “Henry solubility constant Hcp at 296 K” value stood at 0.77.
For the compound `[C-]#[O+]` [carbon monoxide], in series [3] (setting [12]), the “Henry solubility constant Hcp at 310 K” value came to 8.3e-06. The “Henry solubility constant Hcp” value in series [1] (reference: Bunsen (1855a)) is 9.5e-06; in series [1] (reference: Meadows and Spedding (1974)) it was 7.9e-05; in series [1] (reference: Rettich et al. (1982)), 9.7e-06; in series [1] (reference: Schmidt (1979)), 7e-06; in series [1] (reference: Winkler (1901)), 9.4e-06.
`CCCCOCC` [1-ethoxy-butane]: in series [2] (setting [6]), the “Henry solubility constant Hcp at 296 K” value stood at 0.0064.
For `CCOC(C)(C)C` [ethyl tert-butyl ether], the “Henry solubility constant Hcp” value stood at 0.0061 in series [1] (setting [5]), 0.0064 in series [1] (reference: Haimi et al. (2006)), 0.12 in series [1] (reference: Hwang et al. (2010)) and 0.0063 in series [1] (reference: Sieg et al. (2009)). For the same compound, the “Henry solubility constant Hcp at 296 K” value in series [2] (setting [6]) is 0.0042.
In the case of `C[Si](C)(C)O[Si](C)(C)C` [hexamethyldisiloxane], the “Henry solubility constant Hcp” value in series [1] (setting [13]) stood at 1.3e-06. The “Henry solubility constant Hcp at 296 K” value in series [2] (reference: David et al. (2000)) was found to be 7.7e-07.
For the compound `Cc1cccc(C)c1` [1,3-dimethylbenzene], the “Henry solubility constant Hcp at 310 K” value in series [3] (reference: McIntosh and Heffron (2000)) is 0.00066. For the same compound, the “Henry solubility constant Hcp” value amounted to 0.0014 in series [1] (setting [15]), 0.0014 in series [1] (reference: Li et al. (2008)) and 0.0018 in series [1] (reference: Tsibul’skii et al. (1979)).
With `BrC(Br)Br` [tribromomethane], the “Henry solubility constant Hcp at 310 K” value in series [3] (reference: Zhang et al. (2002)) was found to be 0.0096. In addition, the “Henry solubility constant Hcp” value is 0.0085 in series [1] (reference: Khalfaoui and Newsham (1994a)); 0.018 in series [1] (reference: Munz and Roberts (1987)); 0.016 in series [1] (reference: Nicholson et al. (1984)); 0.02 in series [1] (reference: Ruiz-Bevia and Fernandez-Torres (2010)); 0.019 in series [1] (setting [14]).
On to `CCCCC=O` [pentanal], for which the “Henry solubility constant Hcp” value in series [1] (reference: Buttery et al. (1965)) was 0.058; in series [1] (reference: Ji and Evans (2007)), 0.071. Further, in series [2] (reference: Liu et al. (2015)), the “Henry solubility constant Hcp at 296 K” value worked out at 0.068.
`CCc1ccccc1` [ethylbenzene]: the “Henry solubility constant Hcp” value in series [1] (reference: Allen et al. (1998)) is 0.0013; in series [1] (setting [15]), 0.0011; in series [1] (reference: Brown and Wasik (1974)), 0.0013; in series [1] (reference: Ervin et al. (1980)) it was 0.0014; in series [1] (reference: Hartkopf and Karger (1973)), 0.0016; in series [1] (reference: Heidman et al. (1985)) it was 0.0013. Moreover, the “Henry solubility constant Hcp” value in series [1] (reference: Li et al. (2008)) amounted to 0.0014; in series [1] (reference: Lodge and Danso (2007)), 0.0011; in series [1] (reference: Mackay et al. (1979)) it was 0.0012; in series [1] (reference: Perlinger et al. (1993)), 0.0013; in series [1] (reference: Robbins et al. (1993)), 0.0013; in series [1] (reference: Sanemasa et al. (1981)) it was 0.0014. Also, the “Henry solubility constant Hcp” value was found to be 0.0013 in series [1] (reference: Sieg et al. (2009)), 0.0011 in series [1] (reference: Turner et al. (1996)) and 0.0015 in series [1] (setting [14]). The “Henry solubility constant Hcp at 296 K” value in series [2] (setting [6]) worked out at 0.0016.
`C=COCC(F)(F)F` [(2,2,2-trifluoroethoxy)-ethene]: the “Henry solubility constant Hcp at 310 K” value in series [3] (reference: Munson et al. (1964)) came to 0.00033; in series [3] (setting [16]), 0.00032. For the same compound, the “Henry solubility constant Hcp” value in series [1] (setting [10]) was 0.00055.
With `FC(F)(F)C(Cl)Br` (stereo unspecified) [1-bromo-1-chloro-2,2,2-trifluoroethane], the “Henry solubility constant Hcp at 310 K” value in series [3] (setting [9]) was found to be 0.00033; in series [3] (reference: Saidman et al. (1966)), 0.00034; in series [3] (setting [16]) it was 0.00032. In series [1] (setting [10]), the “Henry solubility constant Hcp” value worked out at 0.00053.
Turning to `CCOCC` [diethyl ether], the “Henry solubility constant Hcp at 310 K” value was determined as 0.0063 in series [3] (reference: Brody et al. (1971)) and 0.0051 in series [3] (reference: Eger et al. (1963)). In addition, the “Henry solubility constant Hcp” value in series [1] (reference: Bachofen and Farhi (1971)) amounted to 0.013; in series [1] (setting [11]), 0.011; in series [1] (reference: Ondo and Dohnal (2007)), 0.01; in series [1] (reference: Signer et al. (1969)), 0.0078. In addition, the “Henry solubility constant Hcp at 293 K” value in series [4] (reference: Yu (1992)) is 0.0033.

(Values after Sander's compilation of Henry's law constants.)
